From patent US10781160B1, “Hexadecyl Treprostinil crystals and methods for preparation thereof” (CHIROGATE INTERNATIONAL INC., priority 2019, dated 2020)

Type: physicochemical
Description: Moreover, the assay of Hexadecyl Treprostinil crystal Form I can be kept between about 98.0% to about 102.0% even after thirty-six months of placement under normal storage temperature (about 5° C. to about −20° C.). […] Moreover, the assay of Hexadecyl Treprostinil crystal Form II can be kept between about 98.0 to about 102.0% even after thirty-six months of placement under normal storage temperature (about 5° C. to about […]).

Hexadecyl Treprostinil [Hexadecyl Treprostinil crystal Form I]
stability (other crystalline forms or degraded products of impurities): no other crystalline forms or degraded products of impurities
